Laboratory results from patent US4339576A, “Anti-asthmatic, anti-allergic, anti-cholinergic, bronchodilator and anti-inflammatory 1-[(benzoylphenyl)-lower-alkyl]piperidines and analogs thereof” (Sterling Drug Inc., priority 1981, dated 1982).
Counter-ions that a name gives are not always drawn. Like-named read-outs stand apart in the source and are kept apart here.

Experiments:
[1] = tested on: adjuvant-induced arthritis; assay: Inhibition of adjuvant-induced arthritis (A.A.); type: in vivo; conditions: Rattus norvegicus, oral, rats, read-out: percent inhibition, A.A.; for inhibition in vivo at 80 µmol/kg: .08 millimoles/kg; for inhibition in vivo at 324 µmol/kg: .324 millimoles/kg; for inhibition in vivo at 40 µmol/kg: .04 millimoles/kg
[2] = tested on: acetylcholine-induced abdominal constriction; assay: Acetylcholine-induced abdominal constriction test (Ach); type: in vivo, mice; conditions: Mus musculus
bradykinin = assay: Anti-bradykinin test (BDK); type: in vivo; conditions: po
[3] = tested on: carrageenin-induced foot edema; assay: Inhibition of carrageenin-induced foot edema (C.E.); type: in vivo, rats; conditions: Rattus norvegicus, read-out: percent inhibition, C.E.
[4] = tested on: histamine induced bronchoconstriction; assay: Histamine induced bronchoconstriction test in anesthetized dogs; type: in vivo; conditions: intraduodenally; for ED40: Canis lupus familiaris, intraduodenal, read-out: AED40 (Approximate Effective Dose resulting in 40% inhibition of bronchoconstriction)
[5] = tested on: passive cutaneous anaphylaxis; assay: Passive cutaneous anaphylaxis test (PCA); type: in vivo; set-up: key: Actv.: active; Weak: weakly active; Inac.: inactive; conditions: rats
human basophils = assay: In vitro histamine release from human basophils test; type: cell-based; conditions: for EC50: read-out: AEC50 (Approximate Effective Concentration resulting in 50% inhibition of allergic release of histamine)
[6] = Toxicity observations in the carrageenin edema test; type: in vivo; conditions: C.E. test, .324 millimoles/kg, oral, rats; for dead: animals dead
Experimental: Anti-inflammatory activity was determined using (1) the inhibition of carrageenin-induced foot edema test described by Winter et al., Proc. Soc. […] Therap. […] J. Vet.
All data were obtained on oral administration in rats.

[7] = tested on: guinea pig tracheal contractions by barium; assay: Relaxation of guinea pig tracheal contractions by barium; conditions: guinea pig trachea
[8] = tested on: guinea pig tracheal contractions by carbachol; assay: Relaxation of guinea pig tracheal contractions by carbachol; conditions: guinea pig trachea, read-out: EC50 (effective concentration to produce 50% relaxation), Carb

SMILES | inhibition in vivo at 80 µmol/kg [1] [%] | ED50 ([2]; po) [mg/kg] | inhibition in vivo at 80 µmol/kg ([3]; .08 millimoles/kg, oral, rats) [%] | inhibition in vivo at 324 µmol/kg ([3]; .324 millimoles/kg, oral, rats) [%] | PCA activity (qualitative statement) [5] | other results
CC(=O)NC1CCN(CC(C)c2ccc(C(=O)c3ccccc3)cc2)CC1.Cl.O (stereo not drawn) [Example 3C, 1-[2-(4-Benzoylphenyl)propyl]-4-acetylaminopiperidine hydrochloride monohydrate] | 19 | 5.6 | 41 | 53 | Inac. | ED50 (bradykinin): 46 mg/kg; ED40 [4]: ~5 mg/kg; EC50 (human basophils): > 10000 nM
CC(CN1CCC(NC(=O)C2CC2)CC1)c1ccc(C(=O)c2ccccc2)cc1 (stereo not drawn) [Example 6A, 1-[2-(4-benzoylphenyl)propyl]-4-cyclopropanecarbonylaminopiperidine] | – | 16 | 72 | 77 | Weak | ED40 [4]: 7.3 mg/kg; AEC50 (Approximate Effective Concentration resulting in 50% inhibition of allergic release of histamine) (human basophils): Inac.
CC(c1cccc(C(=O)c2ccccc2)c1)N1CCCC(CN2CCOCC2)C1 (stereo not drawn) [Example 4C, 1-[1-(3-Benzoylphenyl)ethyl]-3-(4-morpholinylmethyl)piperidine dihydrochloride monohydrate] | – | – | 0 | 55 | – | –
CC(CN1CCC(NC(=O)c2ccccc2)CC1)c1ccc(C(=O)c2ccccc2)cc1 (stereo not drawn) [Example 6C, 1-[2-(4-Benzoylphenyl)propyl]-4-benzoylaminopiperidine] | 51 | 23 | 50 | 57 | – | –
CC(c1cccc(C(=O)c2ccccc2)c1)N1CCCCC1CN1CCOCC1.Cl.Cl (stereo not drawn) [Example 4B, 1-[1-(3-Benzoylphenyl)ethyl]-2-(4-morpholinylmethyl)piperidine dihydrochloride] | – | – | 16 | 48 | – | convulsions ([6]; animals affected at 15 min.): 2/8
CC(c1cccc(C(=O)c2ccccc2)c1)N1CCCCC1CN1CCCCC1 (stereo not drawn) [Example 4D, 1-[1-(3-Benzoylphenyl)ethyl]-2-(1-piperidinylmethyl)piperidine dihydrochloride monohydrate] | – | – | 27 | 59 | – | inhibition in vivo at 324 µmol/kg [1]: 56%
CC(=O)N(C)C1CCN(CC(C)c2ccc(C(=O)c3ccccc3)cc2)CC1.Cl (stereo not drawn) [Example 3G, 1-[2-(4-Benzoylphenyl)propyl]-4-(N-acetyl-N-methylamino)piperidine hydrochloride] | – | – | – | – | – | Ba (active or inactive) [7]: Inact.; EC50 [8]: 340 nM
CC(CN1CCC(N2CCCCC2)CC1)c1ccc(C(=O)c2ccccc2)cc1 (stereo not drawn) [Example 3D, 1-[2-(4-Benzoylphenyl)propyl]-4-(1-piperdinyl)piperidine dihydrochloride] | 86 | 29 | 42 | 46 | Inac. | AED40 (Approximate Effective Dose resulting in 40% inhibition of bronchoconstriction) [4]: Inac.; EC50 (human basophils): 90000 nM
CC(CN1CCC(N)CC1)c1ccc(C(=O)c2ccccc2)cc1.Cl.Cl (stereo not drawn) [Example 5A, 1-[2-(4-benzoylphenyl)propyl]-4-aminopiperidine-dihydrochloride] | – | 42 | – | – | – | AED40 (Approximate Effective Dose resulting in 40% inhibition of bronchoconstriction) [4]: Inac.
CC(C(=O)N1CCCCC1CN1CCCCC1)c1cccc(C(=O)c2ccccc2)c1 (stereo not drawn) [Example 1E, 1-[α-(3-Benzoylphenyl)propionyl]-2-(1-piperidinylmethyl)piperidine] | – | – | – | – | – | inhibition in vivo at 80 µmol/kg ([3]; po): 11%; inhibition in vivo at 324 µmol/kg ([3]; po): 67%
CC(C(=O)N1CCCC(CN2CCCCC2)C1)c1cccc(C(=O)c2ccccc2)c1 (stereo not drawn) [Example 1F, 1-[α-(3-Benzoylphenyl)propionyl]-3-(1-piperidinylmethyl)piperidine hydrochloride] | – | – | 20 | – | Actv. | Toxic (result in words) [6]: Toxic; dead [6]: 5/8
CC(C(=O)N1CCC(CN2CCCCC2)CC1)c1cccc(C(=O)c2ccccc2)c1 (stereo not drawn) [Example 1A, 1-[α-(3-benzoylphenyl)propionyl]-4-(1-piperidinylmethyl)piperidine] | – | – | 14 | – | – | Toxic (result in words) [6]: Toxic; dead [6]: 6/8
CC(=O)NC1CCN(CC(C)c2ccc(C(O)c3ccccc3)cc2)CC1 (stereo not drawn) [Example 7, 1-[2-(α-hydroxy-4-benzylphenyl)propyl]-4-acetylaminopiperidine] | – | – | – | – | – | Ba (active or inactive) [7]: Slightly Active; EC50 [8]: 2900 nM
CC(=O)NC1CCN(CC(C)c2cccc(C(=O)c3ccccc3)c2)CC1.Cl (stereo not drawn) [Example 3A, 1-[2-(3-benzoylphenyl)propyl]-4-acetylaminopiperidine hydrochloride] | 75 | 3.6 | 29 | 58 | – | ED50 (bradykinin): 24 mg/kg; dead [6]: 2/8
CC(CN1CCC(CN2CCCCC2)CC1)c1cccc(C(=O)c2ccccc2)c1 (stereo not drawn) [Example 2, 1-[2-(3-benzoylphenyl)propyl]-4-(1-piperidinylmethyl)piperidine dihydrochloride] | 95 | 22 | 47 | 64 | – | inhibition in vivo at 20 µmol/kg ([1]; .02 millimoles/kg): 59%; inhibition in vivo at 40 µmol/kg [1]: 67%; inhibition in vivo at 324 µmol/kg [1]: 9%; ED50 ([2]; sc): 11 mg/kg; ED50 (bradykinin): 24 mg/kg
CC(CN1CCC(N2CCCCC2)CC1)c1cccc(C(=O)c2ccccc2)c1.Cl.Cl (stereo not drawn) [Example 3B, 1-[2-(3-Benzoylphenyl)propyl]-4-(1-piperidinyl)piperidine dihydrochloride] | – | 7.4 | 67 | 74 | – | ataxic ([6]; animals affected): 1/8; hypothermia ([6]; animals affected): 8/8; dead [6]: 1/8
CCC(=O)NC1CCN(CC(C)c2ccc(C(=O)c3ccccc3)cc2)CC1 (stereo not drawn) [Example 6E, 1-[2-(4-Benzoylphenyl)propyl]-4-propionylaminopiperidine] | – | – | – | – | – | ED40 [4]: 30 mg/kg
CC(C(=O)N1CCCCC1CN1CCOCC1)c1cccc(C(=O)c2ccccc2)c1 (stereo not drawn) [Example 1B, 1-[α-(3-Benzoylphenyl)propionyl]-2-(4-morpholinylmethyl)piperidine hydrochloride] | 0 | – | 9 | 67 | – | –
CC(C(=O)N1CCCC(CN2CCOCC2)C1)c1cccc(C(=O)c2ccccc2)c1.Cl (stereo not drawn) [Example 1D, 1-[α-(3-Benzoylphenyl)propionyl]-3-(4-morpholinylmethyl)piperidine hydrochloride] | 37 | – | 0 | 65 | Actv. | –
CC(C(=O)N1CCC(CN2CCOCC2)CC1)c1cccc(C(=O)c2ccccc2)c1 (stereo not drawn) [Example 1C, 1-[α-(3-Benzoylphenyl)propionyl]-4-(4-morpholinylmethyl)piperidine hydrochloride] | 30 | – | 18 | 61 | – | –
CC(CN1CCC(NC(=O)C2CCCCC2)CC1)c1ccc(C(=O)c2ccccc2)cc1 (stereo not drawn) [Example 6I, 1-[2-(4-Benzoylphenyl)propyl]-4-cyclohexanecarbonylaminopiperidine] | – | – | – | – | – | Ba (active or inactive) [7]: Active; EC50 [8]: 2600 nM
CC(c1cccc(C(=O)c2ccccc2)c1)N1CCC(CN2CCOCC2)CC1 (stereo not drawn) [Example 4A, 1-[1-(3-benzoylphenyl)ethyl]-4-(4-morpholinylmethyl)piperidine] | – | – | 0 | 38 | Actv. | ED40 [4]: > 30 mg/kg
CCCC(=O)NC1CCN(CC(C)c2ccc(C(=O)c3ccccc3)cc2)CC1 (stereo not drawn) [Example 6B, 1-[2-(4-Benzoylphenyl)propyl]-4-butyrylaminopiperidine] | – | 16 | 54 | 63 | Inac. | inhibition in vivo at 40 µmol/kg [1]: 38%; ED40 [4]: 2 mg/kg; EC50 (human basophils): > 100000 nM
